From patent US20250099420A1, “SMALL MOLECULE MODULATORS OF GPR139 COMPLEX” (University of Florida Research Foundation, Incorporated, priority 2022, published 2025)
Where two headings read alike, the source gives them in different places.

Legend:
parental HEK cells = test: HEK parental Agonist Counterscreen Assay (non-transfected cells); type: cell-based; settings: for Averaged Max % Response (±St. Dev.): activity relative to known control
Source text: The high control for the agonist counterscreen was Forskolin not acetylcholine.

GPR139 = biological target: T1, GPR139 (Homo sapiens, UniProt Q6DWJ6); test: GPR139 Agonist titration / agonist counterscreen assay (calcium detection, HEK-GPR139 cells); type: cell-based; set-up: expressed in transfected cells; host or cells: HEK Aequorin cells, Maxcyte transient transfection; settings: GPR139 Agonist Activity; for EC50: read-out: EC50; for Averaged Max % Response (±St. Dev.): activity relative to known control
T1 sequence (Q6DWJ6 1-353): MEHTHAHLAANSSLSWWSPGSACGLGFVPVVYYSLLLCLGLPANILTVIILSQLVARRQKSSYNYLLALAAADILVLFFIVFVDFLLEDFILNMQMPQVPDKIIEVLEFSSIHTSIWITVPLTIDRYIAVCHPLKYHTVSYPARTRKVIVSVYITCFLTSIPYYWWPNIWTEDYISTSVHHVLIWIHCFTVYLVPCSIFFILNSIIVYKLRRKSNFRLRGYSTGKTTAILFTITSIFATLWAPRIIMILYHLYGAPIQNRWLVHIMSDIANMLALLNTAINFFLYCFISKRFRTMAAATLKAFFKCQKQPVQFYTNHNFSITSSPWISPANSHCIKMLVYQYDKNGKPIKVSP
Protocol: GPR activity was assessed using a calcium detection assay. […] Negative control samples were treated with DMSO. […] Intracellular calcium was measured using Calcium 5.

[1] = HEK Agonist Activity section of Table 4 (parental HEK counterscreen)
[2] = Homo sapiens, HEK293, HEK Agonist Activity section of Table 4 (parental HEK counterscreen)
[3] = values printed in E-notation without unit
[4] = Homo sapiens, HEK293, HEK Agonist Activity, parental non-transfected HEK cells

| Compound | Lipophilic Efficiency (logD) (parental HEK cells; HEK Agonist Activity section) | Lipophilic Efficiency (logP) (parental HEK cells; HEK Agonist Activity section) | Efficiency Ligand (GPR139) | Hill Slope (GPR139) | Lipophilic Efficiency (logD) (GPR139) | Lipophilic Efficiency (logP) (GPR139) | EC50 (GPR139; HEK-GPR139 cells) [nM] | Averaged Max % Response (±St. Dev.) (GPR139) [%] | Lipophilic Efficiency (logD) (GPR139; based on logD) | Lipophilic Efficiency (logP) (GPR139; based on logP) | Hill Slope (GPR139; fitted dose-response curve) | Efficiency Ligand (GPR139; ligand efficiency) | EC50 (GPR139; [3]) [nM] | Lipophilic Efficiency (logD) (parental HEK cells; HEK Agonist Activity) | Lipophilic Efficiency (logP) (parental HEK cells; HEK Agonist Activity) | EC50 (parental HEK cells; [1]) [nM] | Averaged Max % Response (±St. Dev.) (parental HEK cells; HEK Agonist Activity section) [%] | EC50 (parental HEK cells; [2]) [nM] | Averaged Max % Response (±St. Dev.) (parental HEK cells; HEK Agonist Activity) [%] | EC50 (parental HEK cells; [4]) [nM] |
| --- | --- | --- | --- | --- | --- | --- | --- | --- | --- | --- | --- | --- | --- | --- | --- | --- | --- | --- | --- | --- |
| CCOc1ccccc1NC(=O)CN1C(=O)NC(C)(c2ccc(Cl)cc2Cl)C1=O (centres unmarked) [SR-01000072797] | 1.39 | 1.39 | 0.29 | 0.87 | 2.52 | 2.52 | 1000 | 94.94 ± 8.96 |  |  |  |  |  |  |  | > 14200 | 4.41 ± 6.50 |  |  |  |
| COc1ccc(CCC(=O)Nc2ccc(-c3cn[nH]c3)c(OC)c2)cc1 [SR-00000005955] | 1.73 | 1.73 |  |  |  |  |  | 95.13 ± 3.75 | 4.08 | 4.08 | 1.31 | 0.39 | 62 |  |  |  | 18.59 ± 8.23 | > 14100 |  |  |
| Cc1cccc(CNC(=O)Nc2ccc(-c3cn[nH]c3)cc2)c1.O=C(O)C(F)(F)F [SR-00000005301] | 1.56 | 1.56 | 0.40 | 0.94 | 3.26 | 3.26 | 281 | 86.84 ± 8.43 |  |  |  |  |  |  |  | > 14100 | 8.29 ± 4.70 |  |  |  |
| CC(C)C(C)(C#N)NC(=O)CSc1nnc(Cc2cccc3ccccc23)n1N (centres unmarked) [SR-01000052065] | 2.71 | 2.62 |  |  |  |  |  | 98.20 ± 7.98 | 4.63 | 4.54 | 0.53 | 0.33 | 182 |  |  | > 15200 | 8.92 ± 9.62 |  |  |  |
| COc1ccc2c(CC(=O)NNC(=O)c3cc(-c4ccccc4)no3)coc2c1 [SR-01000074979] | 2.52 | 2.51 | 0.31 | 0.80 | 4.03 | 4.03 | 441 | 79.45 ± 3.43 |  |  |  |  |  |  |  |  | −0.33 ± 8.51 | > 14400 |  |  |
| C=C1C(CC(=C)C2Cc3ccc4ccccc4c3C2)=CC(c2ccccc2)=CC1C (centres unmarked) [SR-00000002785] | 2.62 | 2.62 |  |  |  |  |  | 80.59 ± 9.85 | 4.66 | 4.66 | 0.95 | 0.32 |  |  |  |  | −10.50 ± 3.98 | > 14100 |  |  |
| O=C(CSc1ccc(Cl)cc1)NNC(=O)c1ccc(O)cc1 [SR-01000060349] |  |  |  |  |  |  |  | 123.74 ± 9.56 | 5.31 | 5.26 | 0.81 | 0.50 | 16.2 | 2.34 | 2.30 |  |  |  | 36.27 ± 9.28 | > 15100 |
| O=C(CCc1nc2ccccc2s1)NNC(=O)C1CCCCC1 [SR-01000068916] | 2.04 | 2.04 |  |  |  |  |  | 118.50 ± 16.12 | 4.23 | 4.23 | 0.84 | 0.43 | 98.9 |  |  |  | 19.72 ± 5.30 | > 15300 |  |  |

The next lines start with results.

| Lipophilic Efficiency (logD) (parental HEK cells; HEK Agonist Activity section) | Lipophilic Efficiency (logP) (parental HEK cells; HEK Agonist Activity section) | Efficiency Ligand (GPR139) | Hill Slope (GPR139) | Lipophilic Efficiency (logD) (GPR139) | Lipophilic Efficiency (logP) (GPR139) | EC50 (GPR139; HEK-GPR139 cells) [nM] | Averaged Max % Response (±St. Dev.) (GPR139) [%] | Lipophilic Efficiency (logD) (GPR139; based on logD) | Lipophilic Efficiency (logP) (GPR139; based on logP) | Hill Slope (GPR139; fitted dose-response curve) | Efficiency Ligand (GPR139; ligand efficiency) | EC50 (GPR139; [3]) [nM] | Lipophilic Efficiency (logD) (parental HEK cells; HEK Agonist Activity) | Lipophilic Efficiency (logP) (parental HEK cells; HEK Agonist Activity) | Compound | EC50 (parental HEK cells; [1]) [nM] | Averaged Max % Response (±St. Dev.) (parental HEK cells; HEK Agonist Activity section) [%] | EC50 (parental HEK cells; [2]) [nM] | Averaged Max % Response (±St. Dev.) (parental HEK cells; HEK Agonist Activity) [%] | EC50 (parental HEK cells; [4]) [nM] |
| --- | --- | --- | --- | --- | --- | --- | --- | --- | --- | --- | --- | --- | --- | --- | --- | --- | --- | --- | --- | --- |
| 1.65 | 1.65 | 0.26 | 0.69 | 2.57 | 2.57 | 1700 | 89.30 ± 20.10 |  |  |  |  |  |  |  | Cc1nn(-c2ccccc2)nc1C(=O)NNC(=O)CSCc1cccc2ccccc12 [SR-01000634249] | > 14100 | 7.70 ± 7.23 |  |  |  |
| 1.38 | 1.38 |  |  |  |  |  | 112.24 ± 16.06 | 3.54 | 3.54 | 0.93 | 0.35 |  |  |  | Cc1ccc(CN2CCCN(CC(=O)NC3CCCCCCC3)C2=O)c(Cl)c1 [SR-01000146444] |  | 20.98 ± 2.11 | > 14100 |  |  |
| 2.63 | 2.59 |  |  |  |  |  | 88.58 ± 8.42 | 4.63 | 4.59 | 0.85 | 0.31 | 141 |  |  | CC(C)(C)n1c2c(c(=O)[nH]c1=O)C(NC(=O)CCC1CCCCC1)(C(F)(F)F)C(=O)N2 (centres unmarked) [SR-01000091502] | > 14100 | −12.00 ± 4.68 |  |  |  |
| 1.47 | 1.47 | 0.29 | 1.51 | 3.10 | 3.10 | 328 | 101.74 ± 19.26 |  |  |  |  |  |  |  | O=C(CC1CCN(Cc2ccccc2O)C1=O)C1CCC(c2cccc(O)c2)C(O)C1 (centres unmarked) [SR-01000151350] |  | 12.46 ± 7.98 | > 14100 |  |  |
|  |  |  |  |  |  |  | 119.40 ± 41.91 | 4.54 | 4.54 | 0.73 | 0.40 | 35.8 | 1.94 | 1.94 | O=C(CN1CCN(Cc2ccccc2Cl)C1=O)NCc1ccccc1Cl [SR-01000125458] |  |  |  | −1.02 ± 2.16 | > 14100 |
| 1.85 | 1.85 | 0.37 | 1.15 | 3.01 | 3.01 | 955 | 81.65 ± 6.38 |  |  |  |  |  |  |  | COc1ccc(SCC(=O)NNC(=S)Nc2ccccc2)cc1 [SR-01000526835] |  | 7.64 ± 8.84 | > 13900 |  |  |
|  |  |  |  |  |  |  | 108.38 ± 13.78 | 4.80 | 4.80 | 0.79 | 0.41 | 14.9 | 1.82 | 1.82 | O=C(CN1CCCN(Cc2ccc(F)cc2Cl)C1=O)NC1CCCCCC1 [SR-01000146442] |  |  |  | −6.48 ± 10.66 | > 14100 |
|  |  |  |  |  |  |  | 100.27 ± 11.90 | 5.36 | 5.36 | 0.74 | 0.37 | 45.1 | 2.87 | 2.87 | O=C(Cn1ccc2ccccc21)NCCn1cnc(-c2ccccc2)cc1=O [SR-01000926956] |  |  |  | −3.24 ± 9.86 | > 14100 |
| 2.04 | 2.04 | 0.31 | 0.85 | 3.57 | 3.57 | 416 | 109.30 ± 18.80 |  |  |  |  |  |  |  | CNc1ccc(CCNC(=O)Cn2c3ccccc3c3nc(=O)cc(C)n32)cc1 [SR-01000139601] |  | −14.37 ± 9.70 | > 14100 |  |  |
| 1.92 | 1.92 |  |  |  |  |  | 124.78 ± 10.06 | 3.82 | 3.82 | 0.77 | 0.31 | 178 |  |  | Cc1cccnc1CNC(=O)CCC1(Cc2cccc3ccccc23)CCC(=O)N1 (centres unmarked) [SR-01000207758] | > 14100 | 2.94 ± 8.83 |  |  |  |
| 1.77 | 1.77 | 0.37 | 0.33 | 3.32 | 3.32 | 401 | 104.44 ± 8.42 |  |  |  |  |  |  |  | O=C(Cn1nnc2c1-c1ccccc1OC2)Nc1cccc(Cl)c1 [SR-01000135042] |  | 16.89 ± 7.08 | > 14100 |  |  |
